Assay results taken from patent US6355799B1, “Substituted benzene compounds, process for their preparation, and herbicidal and defoliant compositions containing them” (ISK Americas Incorporated, priority 1997, dated 2002).

Key:
Format in all cases: in vivo
[1] = tested on: large crabgrass (Digitaria sanguinalis, DIGSA); assay: Pre-emerge test, greenhouse herbicide activity screening; settings: pre-emerge, phytotoxicity rating 0-100 at 14 days after application
Procedure, shortened: (§1)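 Visual ratings on a 0-100 scale (0 no damage, 100 all plants dead) were taken at 14 days after treatment. Rates of 15-1000 g ai/ha in acetone, 187 l/ha, were sprayed onto soil one day after planting (pre-emerge) or onto 2-3 leaf plants with 0.25% v/v surfactant (post-emerge).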

[2] = tested on: green foxtail (Setaria viridis, SETVI); assay: as above; settings: pre-emerge, phytotoxicity rating 0-100 at 14 days after application
Procedure, shortened: as §1

[3] = tested on: johnsongrass (Sorghum halepense, SORHA); assay: as above; settings: pre-emerge, phytotoxicity rating 0-100 at 14 days after application
Procedure, shortened: as §1

[4] = tested on: ivyleaf morningglory (Ipomoea hederacea, IPOHE); assay: as above; settings: pre-emerge, phytotoxicity rating 0-100 at 14 days after application
Procedure, shortened: as §1

[5] = tested on: barnyardgrass (Echinochloa crus-galli, ECHCG); assay: as above; settings: pre-emerge, phytotoxicity rating 0-100 at 14 days after application
Procedure, shortened: as §1

[6] = tested on: lambsquarters (Chenopodium album, CHEAL); assay: as above; settings: pre-emerge, phytotoxicity rating 0-100 at 14 days after application
Procedure, shortened: as §1

[7] = tested on: sicklepod (Cassia obtusifolia, CASOB); assay: as above; settings: pre-emerge, phytotoxicity rating 0-100 at 14 days after application
Procedure, shortened: as §1

[8] = tested on: velvetleaf (Abutilon theophrasti, ABUTH); assay: as above; settings: pre-emerge, phytotoxicity rating 0-100 at 14 days after application
Procedure, shortened: as §1

[9] = tested on: redroot pigweed (Amaranthus retroflexus, AMARE); assay: as above; settings: pre-emerge, phytotoxicity rating 0-100 at 14 days after application
Procedure, shortened: (§2)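 Compounds in acetone were track-sprayed at 15-1000 g ai/ha (187 l/ha) on sandy loam pots: pre-emerge one day after seeding, post-emerge at 2-3 leaf stage with 0.25% v/v non-ionic surfactant. Phytotoxicity was rated 14 days later on a 0 (no damage) to 100 (complete death) scale.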

[10] = tested on: upland rice (Oryza sp., var. Tebonnet, RICE); assay: Pre-emerge test, crop safety; settings: crop damage, pre-emerge, phytotoxicity rating 0-100 at 14 days after application
Procedure, shortened: as §2

[11] = tested on: field corn (Zea mays L., var. Dekalb 535, CORN); assay: Pre-emerge test, crop safety; settings: crop damage, pre-emerge, phytotoxicity rating 0-100 at 14 days after application
Procedure, shortened: as §2

[12] = tested on: upland rice (Oryza sp., var. Tebonnet, RICE); assay: Post-emerge test, crop safety; settings: post-emerge, crop damage rating 0-100 at 14 days after application
Procedure, shortened: as §1

[13] = tested on: field corn (Zea mays L., var. Dekalb 535, CORN); assay: Post-emerge test, crop safety; settings: post-emerge, crop damage rating 0-100 at 14 days after application
Procedure, shortened: as §1

[14] = tested on: large crabgrass (Digitaria sanguinalis, DIGSA); assay: Post-emerge test, greenhouse herbicide activity screening; settings: post-emerge, phytotoxicity rating 0-100 at 14 days after application
Procedure, shortened: (§3)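 Herbicidal damage is scored 0 (none) to 100 (complete plant death) two weeks after a simulated field spray. Rates span 15–1000 g ai/ha, delivered in acetone at 187 l/ha. For post-emergence treatments, plants have 2–3 leaves and the spray carries 0.25% v/v non-ionic surfactant.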

[15] = tested on: redroot pigweed (Amaranthus retroflexus, AMARE); assay: as above; settings: post-emerge, phytotoxicity rating 0-100 at 14 days after application
Procedure, shortened: as §3

[16] = tested on: green foxtail (Setaria viridis, SETVI); assay: as above; settings: post-emerge, phytotoxicity rating 0-100 at 14 days after application
Procedure, shortened: as §3

[17] = tested on: johnsongrass (Sorghum halepense, SORHA); assay: as above; settings: post-emerge, phytotoxicity rating 0-100 at 14 days after application
Procedure, shortened: as §3

[18] = tested on: ivyleaf morningglory (Ipomoea hederacea, IPOHE); assay: as above; settings: post-emerge, phytotoxicity rating 0-100 at 14 days after application
Procedure, shortened: as §3

[19] = tested on: barnyardgrass (Echinochloa crus-galli, ECHCG); assay: as above; settings: post-emerge, phytotoxicity rating 0-100 at 14 days after application
Procedure, shortened: as §3

[20] = tested on: lambsquarters (Chenopodium album, CHEAL); assay: as above; settings: post-emerge, phytotoxicity rating 0-100 at 14 days after application
Procedure, shortened: as §3

[21] = tested on: sicklepod (Cassia obtusifolia, CASOB); assay: as above; settings: post-emerge, phytotoxicity rating 0-100 at 14 days after application
Procedure, shortened: as §3

[22] = tested on: velvetleaf (Abutilon theophrasti, ABUTH); assay: as above; settings: post-emerge, phytotoxicity rating 0-100 at 14 days after application
Procedure, shortened: as §3

In the case of O=C(Nc1cc(Cl)ccc1-n1c(=O)n2n(c1=O)CCCC2)c1ccc2ccccc2c1 [9-19], the “Pre-emerge Herbicidal Activity DIGSA” value ([1]; rate 63 g ai/ha) is reported as 0, the “Pre-emerge Herbicidal Activity DIGSA” value ([1]; rate 250 g ai/ha) is reported as 80 and the “Pre-emerge Herbicidal Activity SETVI” value ([2]; rate 63 g ai/ha) is reported as 0. The “Pre-emerge Herbicidal Activity SETVI” value ([2]; rate 250 g ai/ha) was 60, the “Pre-emerge Herbicidal Activity SORHA” value ([3]; rate 63 g ai/ha) was 0 and the “Pre-emerge Herbicidal Activity SORHA” value ([3]; rate 250 g ai/ha) was 20. The “Pre-emerge Herbicidal Activity IPOHE” value ([4]; rate 63 g ai/ha) was 30, the “Pre-emerge Herbicidal Activity IPOHE” value ([4]; rate 250 g ai/ha) was 0 and the “Pre-emerge Herbicidal Activity ECHCG” value ([5]; rate 63 g ai/ha) was 0. The “Pre-emerge Herbicidal Activity ECHCG” value ([5]; rate 250 g ai/ha) was 0, the “Pre-emerge Herbicidal Activity CHEAL” value ([6]; rate 63 g ai/ha) was 100 and the “Pre-emerge Herbicidal Activity CHEAL” value ([6]; rate 250 g ai/ha) was 100. For the same compound, the “Pre-emerge Herbicidal Activity CASOB” value ([7]; rate 63 g ai/ha) was 0, the “Pre-emerge Herbicidal Activity CASOB” value ([7]; rate 250 g ai/ha) was 20 and the “Pre-emerge Herbicidal Activity ABUTH” value ([8]; rate 63 g ai/ha) was 100. The “Pre-emerge Herbicidal Activity ABUTH” value ([8]; rate 250 g ai/ha) was 100, the “Pre-emerge Herbicidal Activity AMARE” value ([9]; rate 63 g ai/ha) was 100 and the “Pre-emerge Herbicidal Activity AMARE” value ([9]; rate 250 g ai/ha) was 100. For the same compound, the “Pre-emerge Herbicidal Activity RICE” value ([10]; rate 63 g ai/ha) was 30, the “Pre-emerge Herbicidal Activity RICE” value ([10]; rate 250 g ai/ha) was 50 and the “Pre-emerge Herbicidal Activity CORN” value ([11]; rate 63 g ai/ha) was 0. For the same compound, the “Pre-emerge Herbicidal Activity CORN” value ([11]; rate 250 g ai/ha) was 0, the “Post-emerge Herbicidal Activity RICE” value ([12]; 63 g ai/ha) was 15 and the “Post-emerge Herbicidal Activity RICE” value ([12]; 250 g ai/ha) was 25. For the same compound, the “Post-emerge Herbicidal Activity CORN” value ([13]; 63 g ai/ha) was 10, the “Post-emerge Herbicidal Activity CORN” value ([13]; 250 g ai/ha) was 10 and the “Post-emerge Herbicidal Activity DIGSA” value ([14]; 63 g ai/ha) was 0. For the same compound, the “Post-emerge Herbicidal Activity DIGSA” value ([14]; 250 g ai/ha) was 10, the “Post-emerge Herbicidal Activity AMARE” value ([15]; 63 g ai/ha) was 80 and the “Post-emerge Herbicidal Activity AMARE” value ([15]; 250 g ai/ha) was 98. The “Post-emerge Herbicidal Activity SETVI” value ([16]; 63 g ai/ha) was 10, the “Post-emerge Herbicidal Activity SETVI” value ([16]; 250 g ai/ha) was 20 and the “Post-emerge Herbicidal Activity SORHA” value ([17]; 63 g ai/ha) was 0. For the same compound, the “Post-emerge Herbicidal Activity SORHA” value ([17]; 250 g ai/ha) was 0, the “Post-emerge Herbicidal Activity IPOHE” value ([18]; 63 g ai/ha) was 75 and the “Post-emerge Herbicidal Activity IPOHE” value ([18]; 250 g ai/ha) was 90. The “Post-emerge Herbicidal Activity ECHCG” value ([19]; 63 g ai/ha) was 0, the “Post-emerge Herbicidal Activity ECHCG” value ([19]; 250 g ai/ha) was 10 and the “Post-emerge Herbicidal Activity CHEAL” value ([20]; 63 g ai/ha) was 100. The “Post-emerge Herbicidal Activity CHEAL” value ([20]; 250 g ai/ha) was 100, the “Post-emerge Herbicidal Activity CASOB” value ([21]; 63 g ai/ha) was 80 and the “Post-emerge Herbicidal Activity CASOB” value ([21]; 250 g ai/ha) was 95. The “Post-emerge Herbicidal Activity ABUTH” value ([22]; 63 g ai/ha) was 100 and the “Post-emerge Herbicidal Activity ABUTH” value ([22]; 250 g ai/ha) was 100.
